Key:
Male ICR-mice = test: Acetic acid rising method (analgesic activity); format: in vivo; details: oral, 30 min before 0.6% acetic acid i.p., rising and stretching counted for 20 min
Experimental: Male ICR-mice (5 weeks old, CLEA Japan) were used (1 group, 10 mice), and a sample was orally administered (0.2 mL/10 g, b.w.). After 30 min., 0.6% acetic acid solution was injected to mice intraperitoneally (0.1 mL/10 g, b.w.), and the mice were immediately transferred into an observation cage made of a transparent acrylic resin. The number of mice rising and stretching during the following period of 20 min. was counted. The repression rate (%) was calculated by comparing the average numbers between the sample groups and the control groups and ID50 value was calculated.

human COX-1 = biological target: T1, human COX-1 (Homo sapiens, UniProt P23219); test: COX-1 inhibiting activity (chemiluminescence, microsome fractions); format: biochemical; details: microsome fractions from COX-1 expressing Sf-21 cells, 37° C. 25 min preincubation, arachidonic acid
T1 construct: made in house; host or cells: Sf-21 insect cells, recombinant baculovirus BAC-COX1 (pFASTBAC1), microsome fraction
Experimental: A 1.8 kb DNA fragment containing human COX-1 cDNA (FASEB J., 5 (9), 2304-2312 (1991)) prepared by the PCR method was inserted into plasmid pFASTBAC1 (CIBCOBRL) to obtain a plasmid pFBCOX1.
Using the plasmid pFBCOX1 and BAC-TO-BAC Baculovirus Expression System (GIBCOBRL), a virus stock BAC-COX1 of the recombinant baculovirus was prepared.
Sf-21 cells were inoculated in 125 mL of Sf-900 II SFM medium (GIBCOBRL) at a concentration of 1×10^6 cells/mL, and the medium was incubated at 27° C. for 24 hrs. 0.75 mL of the virus stock BAC-COX1 of the recombinant baculovirus was added, and the mixture was incubated for additional 72 hrs. The cells were separated from the medium by centrifugation (3000 rpm, 10 min.), and washed with PBS twice. The cells were suspended in 10 mL of a lysis buffer (0.1 M Tris-HCl (pH 7.4), 5 mM EDTA), and were treated with a homogenizer (POLYTRON) three times at 20000 rpm for 20 seconds so that the cells were crushed. The supernatant obtained after centrifugation (2000 rpm, 10 min.) was further centrifuged (40000 rpm, 45 min.) to give a precipitate, which was resuspended in a Lysis buffer (0.1 M Tris-HCl (pH 7.4), 5 mM EDTA), and the suspension was stored at −80° C.
(§1) To a mixture of […] of a reaction buffer previously concentrated 10 times (1 M Tris-HCl (pH 8.0), 50 mM EDTA, 1.0% Tween 20, 50 mM luminol, 100 mM hematin), 20 mL of the microsome fractions (COX-1: 40 mg, COX-2: 20 mg), and […] of distilled water, a sample compound dissolved in DMF (5 mL) was added, and the mixture was left at 37° C. for 25 min. The reaction was started by the addition of 20 mM arachidonic acid ([…]), and chemiluminescence amount during the 10-second period after the addition of arachidonic acid was determined by the use of Lumistar (BMG Lab technologies, GmbH). The inhibition rate was calculated, regarding that the enzyme activity when DMF ([…]) was added was 100%, and the enzyme activity was 0% when 4 mM flurbiprofen (5 mL) was added.

Male SD rats [1] = test: Test for gastric mucosa disorder; format: in vivo; details: oral 300 mg/kg, stomach examined after 24 hr
Experimental: Male SD rats (6 rats, 7 weeks old, CLEA Japan) were used. The test compound was orally administered (5 mL/kg, b.w.) to the rats after 24 hr-fasting or without fasting. After 23.5 hrs., the rats were intravenously injected with Evan's Blue (0.5% Evan's Blue/saline, 1 mL/rat) without anesthesia. After 30 min., the rats were laparotomized and stomach was excised. Esophagus was clipped. A 1% formalin solution (8 mL) was infused to the esophagus, and duodenum was clipped. The stomach was immersed in a 1% formalin solution for 10 min. or more, and sectioned along the line from duodenum to greater curvature of the stomach. After washing the stomach, the total length (mm^2) of the site (hemorrhage site: detachment of mucosa-ulcer) stained with Evan's Blue was measured with a counter under a stereomicroscope and recorded.

Male SD rats [2] = test: Carrageenin edema test; format: in vivo; details: oral, 1 hr before 1% carrageenin in footpad, foot volume after 2 hr and 3 hr
Experimental: Male SD rats (6-week-old, CLEA Japan) were used (6 rats per group). The carrageenin edema test was performed in accordance with the method of Winter et al. (Proc. Soc. Exp. Biol. Med., 111, 544-547, 1962). The volume of the footpad of the right hind limb was measured. Then, the test compound was orally administered (1.0 mL/100 g body weight), and immediately thereafter, water was orally administered to 5 mL/rat. Vehicle alone was orally administered to control group. After 1 hr., 0.05 mL of saline containing 1% carrageenin was subcutaneously injected into the footpad of the right hind limb to induce edema. After 2 hr. and 3 hr., the volume of the footpad of the right hind limb was measured. For the effects of the compound, the difference in the volume of the foot before and 2 hr. and 3 hr. after the carrageenin injection was determined, from which inhibitory rate (%) relative to the control group was calculated, and ID30 was determined.

HSP27 gene expression = test: HSP27-inducing activity in gastric mucosa (TaqMan PCR); format: in vivo; details: rats, oral 30 mg/ml, gastric mucosa 2 hr after administration
Experimental: Compound A (30 mg/ml) and vehicle were orally administered to rats. After 2 hr., stomach was excised from the rats, opened and washed with ice-cooled physiological saline. Gastric mucosa was taken from the stomach using sterilized cover glass, and immediately suspended in ISOGEN (Wako Pure Chemical Industries, Ltd.). Total RNA was prepared from the gastric mucosa according to instructions, and purified by RNAeasy Midi Kit (QIAGEN). Then cDNA was synthesized from the total RNA using TaqMan Gold RT-PCR Kit (Applied Biosystems), and subjected to TaqMan PCR using ABI7700 (Applied Biosystems), based on which the amount of HSP 27 gene expression was determined. Forward primer used was 5′-[…]-3′ (SEQ ID NO:1), Reverse primer used was 5′-[…]-3′ (SEQ ID NO:2), and TaqMan probe used was 5′-[…]-3′ (SEQ ID NO:3) labeled with FAM (6-carboxyfluorescein). Additionally, the amount of GAPDH gene expression was determined using TaqMan Rodent GAPDH Control Reagents VIC probe (Applied Biosystems) and G3PDH cDNA Control probe (CLONTECH), and the amount was employed as an internal control. The amount of HSP27 gene expression is shown by the values calibrated with an amount of internal control (i.e., GAPDH gene) expression (Table 4).

human COX-2 = biological target: T2, human COX-2 (Homo sapiens, UniProt P35354); test: COX-2 inhibiting activity (chemiluminescence, microsome fractions); format: biochemical; details: microsome fractions from COX-2 expressing Sf-21 cells, 37° C. 25 min preincubation, arachidonic acid
T2 construct: made in house; host or cells: Sf-21 insect cells, recombinant baculovirus BAC-COX2 (pFASTBAC1), microsome fraction
T2 sequence (P35354 18-604): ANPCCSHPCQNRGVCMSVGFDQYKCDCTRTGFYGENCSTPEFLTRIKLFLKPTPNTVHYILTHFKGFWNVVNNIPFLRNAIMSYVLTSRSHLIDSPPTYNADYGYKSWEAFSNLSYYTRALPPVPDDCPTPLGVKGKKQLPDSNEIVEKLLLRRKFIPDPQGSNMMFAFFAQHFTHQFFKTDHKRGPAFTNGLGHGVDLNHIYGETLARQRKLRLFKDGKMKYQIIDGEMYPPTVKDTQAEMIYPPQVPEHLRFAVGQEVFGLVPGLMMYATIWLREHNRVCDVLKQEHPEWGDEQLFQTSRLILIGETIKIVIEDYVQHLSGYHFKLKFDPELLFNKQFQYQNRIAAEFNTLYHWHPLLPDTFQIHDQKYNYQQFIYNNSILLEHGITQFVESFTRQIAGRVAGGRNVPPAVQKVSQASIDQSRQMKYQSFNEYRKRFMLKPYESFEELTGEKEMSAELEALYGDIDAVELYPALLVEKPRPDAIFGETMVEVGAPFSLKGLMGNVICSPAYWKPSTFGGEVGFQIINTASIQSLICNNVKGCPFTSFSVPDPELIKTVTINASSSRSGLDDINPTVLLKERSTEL
Experimental: A 1.8 kb DNA fragment containing human COX-2 cDNA (Proc. Natl. Acad. Sci. U.S.A., 89 (16), 7384-7388-(1992)) prepared by the PCR method was inserted into plasmid pFASTBAC1 (CIBCOBRAL) to obtain a plasmid pFBCOX2.
Using the plasmid pFBCOX2 and BAC-TO-BAC Baculovirus Expression System (GIBCOBRAL), a virus stock BAC-COX2 of the recombinant baculovirus was prepared.
Sf-21 cells were inoculated in 125 mL of LSf-900 II SFM medium (GIBCOBRAL) at a concentration of 1×10^6 cells/mL, and the medium was incubated at 27° C. for 24 hrs. 0.75 mL of the virus stock BAC-COX2 of the recombinant baculovirus was added, and was incubated for additional 72 hrs. The cells were separated from the medium by centrifugation (3000 rpm, 10 min.), and washed twice with PBS. The cells were suspended in 10 mL of a Lysis buffer (0.1 M Tris-HCl (pH 7.4), 5 mM EDTA), and were treated with a homogenizer (POLYTRON), three times at 20000 rpm for 20 sec. so that the cells were crushed. The supernatant thus obtained after centrifugation (2000 rpm, 10 min.) was further centrifuged (40000 rpm, 45 min.) to obtain a precipitate, which was resuspended in a Lysis buffer (0.1 M Tris-HCl (pH 7.4), 5 mM EDTA), and the suspension was stored at −80° C.
as §1

T1 sequence (P23219 24-599): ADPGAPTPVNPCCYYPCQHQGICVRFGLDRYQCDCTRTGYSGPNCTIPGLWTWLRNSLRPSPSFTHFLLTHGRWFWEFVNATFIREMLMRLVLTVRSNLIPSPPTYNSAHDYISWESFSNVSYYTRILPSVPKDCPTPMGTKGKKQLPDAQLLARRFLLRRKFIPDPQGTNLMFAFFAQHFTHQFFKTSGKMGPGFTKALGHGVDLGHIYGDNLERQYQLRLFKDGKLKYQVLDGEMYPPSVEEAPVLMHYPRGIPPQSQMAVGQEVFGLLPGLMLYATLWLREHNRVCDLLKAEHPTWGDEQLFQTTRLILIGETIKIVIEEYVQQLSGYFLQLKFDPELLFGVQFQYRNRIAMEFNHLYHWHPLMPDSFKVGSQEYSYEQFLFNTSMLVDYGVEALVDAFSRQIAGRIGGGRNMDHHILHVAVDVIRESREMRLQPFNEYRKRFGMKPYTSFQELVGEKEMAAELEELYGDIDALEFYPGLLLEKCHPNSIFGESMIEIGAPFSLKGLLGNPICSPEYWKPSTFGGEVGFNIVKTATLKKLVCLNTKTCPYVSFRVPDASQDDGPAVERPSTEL

IC50 (human COX-1)	Area of lesion (mm^2) (average), Administration after 24 hr-fasting (Male SD rats [1]; after 24 hr-fasting)	Area of lesion (mm^2) (average), Administration without fasting (Male SD rats [1]; without fasting)	IC50 (human COX-2)	Compound	ID50 (Male ICR-mice)	ID30 (Male SD rats [2])	HSP27/GAPDH (x10^4) (HSP27 gene expression; calibrated with GAPDH expression)	HSP27/GAPDH (% of control) (HSP27 gene expression; relative to vehicle)
450 nM	0.2 mm^2	0 mm^2	380 nM	Cc1nn(-c2ccccn2)c2[nH]c3ccc(C(F)(F)F)cc3c(=O)c12 [Compound A, 3-Methyl-1-(2-pyridinyl)-6-(trifluoromethyl)-1,9-dihydro-4H-pyrazolo[3,4-b]quinolin-4-one]	0.9 mg/kg	2.2 mg/kg	197 ± 20	(277) % of control
527 nM	–	–	295 nM	Cc1nn(-c2ccccn2)c2[nH]c3cc(F)c(F)cc3c(=O)c12 [Compound B, 6,7-Difluoro-3-methyl-1-(2-pyridinyl)-1,9-dihydro-4H-pyrazolo[3,4-b]quinolin-4-one]	–	–	–	–
263 nM	–	–	213 nM	Cc1nn(-c2ccccn2)c2[nH]c3cc(F)c(Cl)cc3c(=O)c12 [Compound C, 6-Chloro-7-fluoro-3-methyl-1-(2-pyridinyl)-1,9-dihydro-4H-pyrazolo[3,4-b]quinolin-4-one]	–	–	–	–
600 nM	–	–	360 nM	O=c1c2cc(Cl)ccc2[nH]c2c1cnn2-c1ccccn1 [Compound D, 6-Chloro-1-(2-pyridinyl)-1,9-dihydro-4H-pyrazolo[3,4-b]quinolin-4-one]	–	–	–	–
